{
  "source": "patent US6660837B1",
  "about": "“Modified protein derived from protein kinase N” (Kirin Beer Kabushiki Kaisha, priority 1995, dated 2003)",
  "key": {"[1]": {"biological_target": "T1, PKN purified from rat testis (Rattus norvegicus, UniProt Q63433)", "T1 construct": "The purified PKN (1 ng) from rat testis cytosol; from tissue; host or cells: rat testis (cytosol / soluble fraction)", "T1 sequence (Q63433 whole entry)": "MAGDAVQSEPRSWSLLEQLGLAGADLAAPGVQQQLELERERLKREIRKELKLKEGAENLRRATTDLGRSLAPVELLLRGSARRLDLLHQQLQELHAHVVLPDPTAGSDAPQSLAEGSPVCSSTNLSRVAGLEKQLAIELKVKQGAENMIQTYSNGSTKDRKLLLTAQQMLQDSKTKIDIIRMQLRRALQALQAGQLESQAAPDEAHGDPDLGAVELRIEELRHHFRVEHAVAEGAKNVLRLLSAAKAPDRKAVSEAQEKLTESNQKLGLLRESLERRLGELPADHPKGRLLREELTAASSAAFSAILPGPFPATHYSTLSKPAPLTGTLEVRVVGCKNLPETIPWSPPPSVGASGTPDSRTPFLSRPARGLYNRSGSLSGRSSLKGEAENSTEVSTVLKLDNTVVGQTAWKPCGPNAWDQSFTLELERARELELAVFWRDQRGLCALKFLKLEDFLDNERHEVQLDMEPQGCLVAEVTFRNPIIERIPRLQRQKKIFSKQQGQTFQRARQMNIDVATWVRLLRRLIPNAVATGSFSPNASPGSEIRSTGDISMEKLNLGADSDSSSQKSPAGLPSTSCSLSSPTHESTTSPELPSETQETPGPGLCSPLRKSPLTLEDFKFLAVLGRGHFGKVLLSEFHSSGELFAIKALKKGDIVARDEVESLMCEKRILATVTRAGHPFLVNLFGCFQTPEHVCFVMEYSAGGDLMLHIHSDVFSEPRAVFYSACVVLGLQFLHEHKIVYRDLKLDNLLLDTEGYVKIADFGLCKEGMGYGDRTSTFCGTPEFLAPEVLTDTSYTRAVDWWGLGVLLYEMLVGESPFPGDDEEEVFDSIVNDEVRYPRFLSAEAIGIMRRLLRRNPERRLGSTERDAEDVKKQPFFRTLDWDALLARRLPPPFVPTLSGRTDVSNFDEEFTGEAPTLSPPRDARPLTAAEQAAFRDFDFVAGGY", "assay": "Phosphorylation of α-actinin and actin-cytoskeletal proteins by PKN", "assay_type": "biochemical", "details": "presence of 40 μM arachidonic acid", "protocol": "α-Actinin used in the experiment was purified from bovine aorta by the method of Feramisco et al. (Feramisco, J. R. & Burridge, K. J. Biol. Chem, 255, 1194-1199 (1980)). The phosphorylation by PKN was carried out at 30° C. in an assay mixture containing 20 mM Tris/HCl at pH 7.5, 4 mM MgCl2, 100 μM ATP, 185 kBq of [γ-^32p] ATP, substrates for phosphorylation (phosphate acceptors), 20 ng/ml of purified PKN from rat testis (Abe, M., et al., J. Biochem. Tokyo 107, 507-509 (1990)) in the presence or absence of 40 μM arachidonic acid as indicated in each experiment. Partial purified protein was boiled for 3 min to destroy endogenous kinase activity before use as the substrate for phosphorylation. After incubation for 5 min, the reaction was terminated by the addition of an equal volume of Laemmli's sample buffer (Laemmli, U. K. Nature […], 680-685 (1970)), and separated on SDS-PAGE. The gels were dried under vacuum and the phosphorylation was visualized and quantitated by an imaging analyzer (FUJI BAS1000). When the δPKC peptide (Mukai, H., et al. Biochem, Biophys. Res. Commun. 204, 348-356 (1994)) was used as the substrate for phosphorylation, reactions were terminated by spotting a mixture onto a Whatman P81 paper and submerging it in 75 mM phosphate, and followed by three times of 10 min washes. Incorporation of ^32p into the peptide was assessed by scintillation counting. […]"}, "[2]": {"biological_target": "T2, purified PKN from rat testis (Rattus norvegicus, UniProt Q63433)", "T2 construct": "The purified PKN (1 ng) from rat testis cytosol; from tissue; host or cells: rat testis (cytosol / soluble fraction)", "T2 sequence (Q63433 whole entry)": "as above", "assay": "Phosphorylation of native NF by PKN", "assay_type": "biochemical", "details": "40 μM arachidonic acid", "protocol": "Native NFs were prepared from bovine spinal cords according to a method described in Hisanaga, S. & Hirokawa, N., J. Mol. Biol. 202, 297-305 (1988). Kinase assay was carried out according to the following method.\nSoluble cytosolic extract of spinal cord or purified NF proteins were boiled for 5 min to destroy endogenous protein kinase activity prior to their use as phosphate acceptors. The phosphorylation of NF preparations was carried out at 30° C. in an assay mixture containing 20 mM Tris/HCl at pH 7.5, 8 mM MgCl2, 100 μM ATP, 185 kBq of [γ-^32P]ATP, each subunit of NF, 20 ng/ml of purified PKN from rat testis, and with/without 40 μM arachidonic acid as indicated in each experiment. Reactions were terminated after various times by the addition of an equal volume of Laemli's sample buffer, and separation was performed on 7% SDS-PAGE. The gels were dried under vacuum and exposure to BAS1000 bio-imaging analyzer. Dephosphorylation of NF proteins was conducted with calf intestine alkaline phosphatase according to a method described in Carden, M. J. et al., J. Biol. Chem. 260, 9805-9817 (1985) and terminated after boiling for 5 min."}, "Rat-1 cells": {"system": "Rat-1 cells", "assay": "Subcellular distribution of PKN after sodium arsenite (immunofluorescence)", "assay_type": "cell-based", "details": "50 μM, 37° C. for 2 hr", "protocol": "(§1) Cells grown on coverslips were washed twice with phosphate-buffered saline (PBS), fixed for 1 hr at 4° C. in 4% paraformaldehyde, rinsed with PBS, and then blocked for 1 hr in PBS-T (PBS containing 0.05% Triton X-100) containing 5% normal goat serum. After washing with PBS, cells were incubated overnight at 4° C. with each antiserum which has been diluted with PBS to an antiserum concentration of about 10 μg/ml. Coverslips were then rinsed with PBS-T, and incubated with fluorescein isothiocyanate isomer I (FITC)-conjugated goat anti-rabbit IgG (Medical and biological laboratories, Co. Ltd.) for 60 min. Coverslips were rinsed with PBS-T followed by PBS, mounted with glycerol containing 0.1% 1, 4-diazabicyclo (2, 2, 2) octane (DABCO), and viewed on a Zeiss laser scanning microscope.\nAn experiment was made in order to examine whether the subcellular distribution of PKN is influenced also by chemical shock. It is known that toxic compounds and toxic heavy metals also induce heat shock proteins and the stress responses in experimental systems (Maytin, E. V. & Young, D. A., J. Biol. Chem. 258, 12718-12722 (1983)). It is also known that cellular response similar to the stress induced by the heat shock is created also by treatment with sodium arsenite (Welch, W. J. & Suhan, J. P., J. Cell Biol. 103, 2035-2052 (1986)). […]"}, "PKN": {"biological_target": "T3, PKN (Rattus norvegicus, UniProt Q63433)", "T3 construct": "The purified PKN (1 ng) from rat testis cytosol; from tissue; host or cells: rat testis (cytosol / soluble fraction)", "T3 sequence (Q63433 whole entry)": "as above", "assay": "Inhibition of protein kinase activity of PKN with synthetic peptides (δPKC peptide substrate)", "assay_type": "biochemical", "details": "δPKC peptide at Km concentration (10 μM)", "protocol": "Kinase assay was carried out by the following method. The purified PKN (1 ng) from rat testis cytosol (Kitagawa, M. et al., Biochem. J. 310, 657-664. (1995)) was incubated for 5 min at 30° C. in a reaction mixture (final volume 25 μl) containing 50 mM Tris/HCl (pH 7.5), 8 mM Mgcl2, 20 μM ATP, 18.5 kBq of [γ-^32p] ATP, 40 μM arachidonic acid, phosphate acceptors and inhibitors as indicated in each experiment. Reactions were started by the addition of the enzyme source and terminated by spotting them onto Whatman P81 papers immersed in 75 mM phosphate. Incorporation of ^32P into phosphate acceptors was assessed by liquid scintillation counting. The protein kinase assay was carried out in the same manner as in Example 13, except that PKN was measured by using 6PKC peptide as a substrate and PKN (39-53) peptide (FIG. 22; black circle) or PKN (54-73) (FIG. 22: white circle) as an inhibitor. The concentration of δPKC peptide was Km concentration (10 μM). The protein kinase reaction was carried out in the presence of PKN (39-53) peptide or PKN (54-73) peptide with various concentrations."}, "[3]": {"biological_target": "T4, GST-RhoGAP-stimulated GTPase activity of GST-RhoA (Homo sapiens, UniProt P61586)", "T4 construct": "made in house", "T4 sequence (P61586 whole entry, the tested form may be a part)": "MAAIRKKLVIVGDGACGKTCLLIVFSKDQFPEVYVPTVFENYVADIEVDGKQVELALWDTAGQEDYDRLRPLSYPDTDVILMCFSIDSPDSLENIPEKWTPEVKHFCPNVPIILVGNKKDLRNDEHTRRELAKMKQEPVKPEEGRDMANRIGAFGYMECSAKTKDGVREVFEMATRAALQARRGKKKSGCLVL", "assay": "GAP-stimulated GTPase activity of RhoA", "assay_type": "biochemical", "details": "50 nM GST-RhoGAP, 2 min 25° C., concentration-dependent", "protocol": "The GAP-stimulated GTPase activity of RhoA was assayed by measuring the decreased radioactivity of [γ-^32p] GTP.GST-RhoA for 2 min at 25° C. in the presence of 50 nM of p122 Rho GAP fused to GST (GST-RhoGAP) and MBP-PKN with various concentrations in 100 μl of reaction mixture (20 mM Tris/HCl at pH 7.5, 10 mM EDTA, 1 mM DTT, 10 mM MgCl2, 1 mM GTP, 0.075% CHAPS, 0.25 mM L-α-dimyristoylphosphatidylcholine, 100 nM [γ-^32p] GTP bound form of GST-RhoA) (Homma, Y. & Emori, Y., EMBO J. 14, 286-291 (1995)."}, "PKN autophosphorylation": {"system": "PKN autophosphorylation", "assay": "Kinase activity (autophosphorylation) of immunoprecipitated PKN-PK^−", "assay_type": "biochemical, human", "details": "immunoprecipitate from PK^−/neo#5 cells", "protocol": "To examine whether PKN-PK^− has kinase activity, the kinase activity of PKN-PK^−, which has been immunoprecipitated by cells, was assayed. Specifically, the assay was carried out according to the following procedure.\nThe experiment on immunoprecipitation was carried out at 0 to 4° C. The wild type NIH 3T3 cells and PK^−/neo#5 cells were lysed in 0.5 ml of buffer B (20 mM Tris/HCl at pH 7.5, 1% Nonidet P-40, 137 mM NaCl, 10% glycerol, 1 mM PMSF, 20 μg/ml aprotinin, 10 μg/ml leupeptin, 2.5 mM sodium fluoride, 0.25 mM sodium vanadate) for 1 hr. Insoluble materials were removed by centrifugation at 15,000×g for 10 min, and the supernatants were incubated with 1 μl of 10-fold diluted antiserum αN2 (Example 19) for 2 hr. After addition of 40 μl of 50% protein A Sepharose, the mixtures were further incubated for 1 hr. […] Each immunoprecipitate was incubated for 5 min at 30° C. with a 25-μl mixture (20 mM Tris/HCl at pH 7.5, 4 mM MgCl2, 40 μM ATP, 185 kBq of [γ-^32P] ATP without exogenous substrate. After addition of 5 μl of 6×Laemmli sample buffer (Laemmli, U. K. Nature 227, 680-685 (1970)) and boiling, a 20-μl aliquot of the mixture was subjected to 7% SDS-PAGE. The phosphorylation was visualized and quantitated by an imaging analyzer (Fuji BAS1000)."}, "[4]": {"system": "PK^−/neo#5 cells (NIH 3T3)", "assay": "Heat shock induced nuclear translocation of PKN in PK^−/neo#5 cells", "assay_type": "cell-based", "protocol": "as §1\nAt the outset, NIH 3T3 cells which stably overexpresses PKN-PK^− were constructed by the following procedure. A vector phPKNH4-PK^− was constructed by conversion of the lysine at the potential ATP-binding site to an arginine by in vitro site-directed mutagenesis (Mukai, H. & Ono, Y., Biochem. Biophys. Res. Commun. 199, 897-904 (1994)). […]"}, "[5]": {"biological_target": "T5, catalytic subunit of bovine heart PKA (Bos taurus, UniProt P00517)", "T5 construct": "The catalytic subunit of bovine heart PKA used in the experiment was purified; from tissue; host or cells: bovine heart", "assay": "Protein kinase assay with PKA (Kemptide substrate), specificity of inhibitor peptide", "assay_type": "biochemical", "details": "Kemptide at Km concentration (16 μM), no arachidonic acid; read-out: IC50 against PKA", "protocol": "In order to judge the specificity of the activity of the inhibitor peptide, a protein kinase assay was carried out using PKA as an enzyme specimen. The catalytic subunit of bovine heart PKA used in the experiment was purified according to a method described in Bechtel, P. J. et al., J. Biol. Chem. 252, 2691-2697 (1977). The protein kinase activity of PKA was measured by using Kemptide (Kemp, B. E. et al., J. Biol. Chem. 252, 4888-4894 (1977) as a substrate under the same conditions as those used in Example 13, except that arachidonic acid was not used. The concentration of Kemptide was the Km concentration (16 μM), and measurement was made using PKN (39-53) peptide as an inhibitor (FIG. 22; white square). The kinase activity was determined in the same manner as in Example 13."}, "purified PKN": {"biological_target": "T6, purified PKN (Rattus norvegicus, UniProt Q63433)", "T6 construct": "The purified PKN (1 ng) from rat testis cytosol; from tissue; host or cells: rat testis (cytosol / soluble fraction)", "T6 sequence (Q63433 whole entry)": "as the sequence (Q63433 whole entry) above", "assay": "Kinetic assays of PKN inhibition by PKN (39-53) peptide", "assay_type": "biochemical", "protocol": "In order to confirm the function of PKN (39-53) as a pseudosubstrate for PKN, kinetic assays were performed with purified PKN, a fixed ATP concentration of 100 μM, and various concentrations of δPKC peptide (10-80 μM). The protein kinase reaction of PKN was performed in the same manner as in Examples 13 and 14. The results, performed in the presence of 40-80 μM PKN (39-53) peptide, are shown in double-reciprocal plots (FIG. 23 (A)). The inhibition was competitive-noncompetitive and gave a linear secondary plot of Km/Vmax (a concentration required to give a half-maximal velocity/maximal velocity) versus inhibitor peptide concentrations (FIG. 23 (B))."}},
  "note": "Ends that are not written are not given here.",
  "data": [
    {"compound": "CCCCC/C=C\\C/C=C\\C/C=C\\C/C=C\\CCCC(=O)O", "note": "[arachidonic acid]", "values": [
      {"measurement": "stimulation of phosphorylation of G-actin by PKN", "setting": "[1]", "result": "up to 2 fold"},
      {"measurement": "stimulation of phosphorylation of caldesmon by PKN", "setting": "[1]", "result": "at least 6 fold"},
      {"measurement": "initial velocity of phosphorylation of each NF subunit by PKN, presence versus absence", "setting": "[2]", "result": "5-10 times"}
    ]},
    {"compound": "O=[As]O", "note": "[sodium arsenite]", "values": [
      {"measurement": "effect on subcellular distribution of PKN", "setting": "Rat-1 cells", "result": "translocation of PKN to the nucleus"}
    ]},
    {"compound": "EGAENLRRATTDLGRSLGPV [PKN (54-73) peptide]", "values": [
      {"measurement": "inhibitory activity against PKN", "setting": "PKN", "result": "little or no inhibitory activity"}
    ]},
    {"compound": "MBP-PKN: N-terminal region of PKN (amino acid sequence 7-155 in SEQ ID NO: 1) expressed as MBP fusion protein", "values": [
      {"measurement": "effect on GST-RhoGAP-stimulated GTPase activity of GST-RhoA", "setting": "[3]", "result": "inhibited"}
    ]},
    {"compound": "PKN-PK^−: single point mutation of human PKN in the kinase domain (K644R), protein kinase-negative mutant", "values": [
      {"measurement": "enzyme (kinase) activity of the mutant", "setting": "PKN autophosphorylation", "result": "inactivated"},
      {"measurement": "nuclear translocation of the mutant protein on heat shock", "setting": "[4]; 42° C. or 44° C. for 90 min", "result": "does not translocate to the nucleus"},
      {"measurement": "effect of overexpression on translocation of endogenous PKN from cytoplasm to nucleus", "setting": "[4]; heat shock", "result": "inhibits the translocation"}
    ]},
    {"compound": "RERLRREIRKELKLK [PKN (39-53) peptide]", "values": [
      {"measurement": "IC50", "setting": "[5]", "result": "≥ 1000", "unit": "µM"},
      {"measurement": "type of inhibition versus δPKC peptide substrate", "setting": "purified PKN; 100 μM ATP", "result": "competitive-noncompetitive"},
      {"measurement": "type of inhibition with varying ATP concentration", "setting": "purified PKN; data not shown", "result": "uncompetitive"}
    ]}
  ]
}
